# Article PMC6391272, “Rex in Caldicellulosiruptor bescii: Novel regulon members and its effect on the production of ethanol and overflow metabolites” (MicrobiologyOpen, 2018)
# Target: T1, Rex (recombinant Rex, rRex) (Caldicellulosiruptor bescii, UniProt B9MPL7)
# T1 construct: E. coli T7 Express; purified with IMPACT kit protocol
# T1 sequence (B9MPL7 1-217): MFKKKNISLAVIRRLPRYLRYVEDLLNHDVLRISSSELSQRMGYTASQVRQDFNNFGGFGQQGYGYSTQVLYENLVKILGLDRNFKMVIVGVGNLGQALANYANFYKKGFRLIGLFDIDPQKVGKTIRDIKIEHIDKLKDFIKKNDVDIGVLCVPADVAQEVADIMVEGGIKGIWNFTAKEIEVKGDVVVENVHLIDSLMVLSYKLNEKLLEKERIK
# Test: electromobility shift assay (biotin-labelled […] bp operator dsDNA)
# Details: room temperature, 30 min; loss of operator DNA binding; NADH/NAD+ cofactor pool 1-100 umol/L
smiles,measurement,value
NC(=O)C1=CN([C@@H]2O[C@H](COP(=O)(O)OP(=O)(O)OC[C@H]3O[C@@H](n4cnc5c(N)ncnc54)[C@H](O)[C@@H]3O)[C@@H](O)[C@H]2O)C=CC1 [NADH],electromobility shift assay (biotin-labelled 50 bp operator dsDNA),DNA binding by Rex is disrupted by NADH and is sensitive to NADH/NAD ^+ ratio
